Experimental data reported in patent publication US12077503B2, “Substituted cyclic amides and their use as herbicides” (FMC CORPORATION, priority 2015, dated 2024).
Like-named read-outs stand apart in the source and are kept apart here.

Assays:
Test in all cases: Test A preemergence
Assay type in all cases: in vivo
Kochia (Kochia scoparia) = settings: Bassia scoparia, pre-emergence, 240 h; for pest or weed control at 125 g/ha: 125 g ai/ha; for pest or weed control at 500 g/ha: 500 g ai/ha
In short: (§1)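 Ratings of 0 (no effect) to 100 (complete control) come from visual comparison with untreated controls roughly 10 d after treatment. Test chemicals, formulated in a non-phytotoxic solvent mixture with surfactant, were applied either as a preemergence directed soil spray on seeded soil or postemergence to one- to two-leaf plants 2 to 10 cm tall.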

[1] = system: giant foxtail (Setaria faberii); settings: Setaria faberi, pre-emergence, 240 h; for pest or weed control at 125 g/ha: 125 g ai/ha; for pest or weed control at 500 g/ha: 500 g ai/ha
In short: as §1

[2] = system: pigweed (Amaranthus retroflexus); settings: Amaranthus retroflexus, pre-emergence, 240 h; for pest or weed control at 125 g/ha: 125 g ai/ha; for pest or weed control at 500 g/ha: 500 g ai/ha
[3] = system: ragweed (common ragweed, Ambrosia elatior); settings: Ambrosia artemisiifolia, pre-emergence, 240 h; for pest or weed control at 125 g/ha: 125 g ai/ha; for pest or weed control at 500 g/ha: 500 g ai/ha
In short: as §1

[4] = system: ryegrass, Italian (Italian ryegrass, Lolium multiflorum); settings: Lolium multiflorum, pre-emergence, 240 h; for pest or weed control at 125 g/ha: 125 g ai/ha; for pest or weed control at 500 g/ha: 500 g ai/ha
In short: as §1

[5] = preemergence, 0 to 100 scale where 0 is no effect and 100 is complete control, read-out: Kochia plant response rating
[6] = preemergence, 0 to 100 scale where 0 is no effect and 100 is complete control, read-out: Foxtail, Giant plant response rating
[7] = preemergence, 0 to 100 scale where 0 is no effect and 100 is complete control, read-out: Pigweed plant response rating
[8] = preemergence, 0 to 100 scale where 0 is no effect and 100 is complete control, read-out: Ragweed plant response rating
[9] = preemergence, 0 to 100 scale where 0 is no effect and 100 is complete control, read-out: Ryegrass, Italian plant response rating
[10] = Preemergence, visual injury vs untreated controls after approximately 10 d, read-out: Kochia plant response rating (0 to 100 scale where 0 is no effect and 100 is complete control)
[11] = Preemergence, visual injury vs untreated controls after approximately 10 d, read-out: Foxtail, Giant plant response rating (0 to 100 scale where 0 is no effect and 100 is complete control)
[12] = Preemergence, visual injury vs untreated controls after approximately 10 d, read-out: Pigweed plant response rating (0 to 100 scale where 0 is no effect and 100 is complete control)
[13] = Preemergence, visual injury vs untreated controls after approximately 10 d, read-out: Ragweed plant response rating (0 to 100 scale where 0 is no effect and 100 is complete control)
[14] = Preemergence, visual injury vs untreated controls after approximately 10 d, read-out: Ryegrass, Italian plant response rating (0 to 100 scale where 0 is no effect and 100 is complete control)
[15] = preemergence, 0 to 100 scale where 0 is no effect and 100 is complete control, approx. 10 d, read-out: Kochia plant response rating
[16] = preemergence, 0 to 100 scale where 0 is no effect and 100 is complete control, approx. 10 d, read-out: Foxtail, Giant plant response rating
[17] = preemergence, 0 to 100 scale where 0 is no effect and 100 is complete control, approx. 10 d, read-out: Pigweed plant response rating
[18] = preemergence, 0 to 100 scale where 0 is no effect and 100 is complete control, approx. 10 d, read-out: Ragweed plant response rating
[19] = preemergence, 0 to 100 scale where 0 is no effect and 100 is complete control, approx. 10 d, read-out: Ryegrass, Italian plant response rating

Compound: CN1C[C@H](c2ccc(C#N)cc2)[C@@H](C(=O)Nc2ccccc2F)C1=O [Compound 1207]
- pest or weed control at 125 g/ha (Kochia (Kochia scoparia); preemergence, visual injury rating, 0 to 100 scale where 0 is no effect and 100 is complete control, approximately 10 d, read-out: Kochia plant response rating): 30%
- pest or weed control at 500 g/ha (Kochia (Kochia scoparia); [5]): 90%
- pest or weed control at 125 g/ha ([1]; preemergence, visual injury rating, 0 to 100 scale where 0 is no effect and 100 is complete control, approximately 10 d, read-out: Foxtail, Giant plant response rating): 80%
- pest or weed control at 500 g/ha [1, 6]: 100%
- pest or weed control at 125 g/ha ([2]; preemergence, visual injury rating, 0 to 100 scale where 0 is no effect and 100 is complete control, approximately 10 d, read-out: Pigweed plant response rating): 0%
- pest or weed control at 500 g/ha [2, 7]: 60%
- pest or weed control at 125 g/ha ([3]; preemergence, visual injury rating, 0 to 100 scale where 0 is no effect and 100 is complete control, approximately 10 d, read-out: Ragweed plant response rating): 30%
- pest or weed control at 500 g/ha [3, 8]: 90%
- pest or weed control at 125 g/ha ([4]; preemergence, visual injury rating, 0 to 100 scale where 0 is no effect and 100 is complete control, approximately 10 d, read-out: Ryegrass, Italian plant response rating): 0%
- pest or weed control at 500 g/ha [4, 9]: 20%

Compound: COc1c(F)ccc([C@H]2CNC(=O)[C@@H]2C(=O)Nc2ccccc2C(F)(F)F)c1Cl [Compound 891]
- pest or weed control at 125 g/ha (Kochia (Kochia scoparia); [5]): 0%
- pest or weed control at 500 g/ha (Kochia (Kochia scoparia); [10]): 20%
- pest or weed control at 125 g/ha [1, 6]: 80%
- pest or weed control at 500 g/ha [1, 11]: 90%
- pest or weed control at 125 g/ha [2, 7]: 0%
- pest or weed control at 500 g/ha [2, 12]: 0%
- pest or weed control at 125 g/ha [3, 8]: 0%
- pest or weed control at 500 g/ha [3, 13]: 0%
- pest or weed control at 125 g/ha [4, 9]: 0%
- pest or weed control at 500 g/ha [4, 14]: 30%

Compound: CN1C[C@H](c2cc(F)cc(F)c2)[C@@H](C(=O)Nc2ccccc2[S@+](C)[O-])C1=O [Compound 871]
- pest or weed control at 125 g/ha (Kochia (Kochia scoparia); [5]): 80%
- pest or weed control at 500 g/ha (Kochia (Kochia scoparia); [10]): 80%
- pest or weed control at 125 g/ha [1, 6]: 80%
- pest or weed control at 500 g/ha [1, 11]: 80%
- pest or weed control at 125 g/ha [2, 7]: 0%
- pest or weed control at 500 g/ha [2, 12]: 30%
- pest or weed control at 125 g/ha [3, 8]: 0%
- pest or weed control at 500 g/ha [3, 13]: 20%
- pest or weed control at 125 g/ha [4, 9]: 0%
- pest or weed control at 500 g/ha [4, 14]: 30%

Compound: CN1C[C@H](c2cc(F)cc(F)c2)[C@@H](C(=O)Nc2ncccc2Cl)C1=O [Compound 1097]
- pest or weed control at 125 g/ha (Kochia (Kochia scoparia); [15]): 0%
- pest or weed control at 500 g/ha (Kochia (Kochia scoparia); preemergence, visual injury rating about 10 d after treatment, 0 to 100 scale (0 no effect, 100 complete control), read-out: Kochia plant response rating): 0%
- pest or weed control at 125 g/ha [1, 16]: 0%
- pest or weed control at 500 g/ha ([1]; preemergence, visual injury rating about 10 d after treatment, 0 to 100 scale (0 no effect, 100 complete control), read-out: Foxtail, Giant plant response rating): 0%
- pest or weed control at 125 g/ha [2, 17]: 0%
- pest or weed control at 500 g/ha ([2]; preemergence, visual injury rating about 10 d after treatment, 0 to 100 scale (0 no effect, 100 complete control), read-out: Pigweed plant response rating): 0%
- pest or weed control at 125 g/ha [3, 18]: 0%
- pest or weed control at 500 g/ha ([3]; preemergence, visual injury rating about 10 d after treatment, 0 to 100 scale (0 no effect, 100 complete control), read-out: Ragweed plant response rating): 0%
- pest or weed control at 125 g/ha [4, 19]: 0%
- pest or weed control at 500 g/ha ([4]; preemergence, visual injury rating about 10 d after treatment, 0 to 100 scale (0 no effect, 100 complete control), read-out: Ryegrass, Italian plant response rating): 0%

Compound: CN1CC[C@H](c2cccc(C(F)(F)F)c2)[C@@H](C(=O)Nc2ccccc2S(C)(=O)=O)C1=O [Compound 920]
- pest or weed control at 125 g/ha (Kochia (Kochia scoparia); [5]): 0%
- pest or weed control at 500 g/ha (Kochia (Kochia scoparia); [10]): 0%
- pest or weed control at 125 g/ha [1, 6]: 80%
- pest or weed control at 500 g/ha [1, 11]: 90%
- pest or weed control at 125 g/ha [2, 7]: 0%
- pest or weed control at 500 g/ha [2, 12]: 0%
- pest or weed control at 125 g/ha [3, 8]: 0%
- pest or weed control at 500 g/ha [3, 13]: 0%
- pest or weed control at 125 g/ha [4, 9]: 0%
- pest or weed control at 500 g/ha [4, 14]: 0%

Compound: O=C1NC[C@H](c2cscn2)[C@H]1C(=O)Nc1cccc(F)c1F [Compound 1111]
- pest or weed control at 125 g/ha (Kochia (Kochia scoparia); [15]): 0%
- pest or weed control at 500 g/ha (Kochia (Kochia scoparia); [5]): 0%
- pest or weed control at 125 g/ha [1, 16]: 0%
- pest or weed control at 500 g/ha [1, 6]: 0%
- pest or weed control at 125 g/ha [2, 17]: 0%
- pest or weed control at 500 g/ha [2, 7]: 0%
- pest or weed control at 125 g/ha [3, 18]: 0%
- pest or weed control at 500 g/ha [3, 8]: 0%
- pest or weed control at 125 g/ha [4, 19]: 0%
- pest or weed control at 500 g/ha [4, 9]: 20%
